# Measurements from patent publication US5872210A (priority 1995, dated 1999).
# Where a SMILES comes first, the peptide text is derived from it. Where no end group is shown, it is not given here.
# Molecular target: T1, HIV-1 protease (Human immunodeficiency virus type 1 group M subtype B, UniProt P04585)
# Test: biochemical
# Conditions: not given
# Experimental: HIV-1 protease was obtained and its active site concentration was determined at 25° C. Purified enzyme was stored as a 5-8 μM stock solution in 50 mM NaOAc (pH 5.0), 1 mM DTT, 1 mM EDTA, 0.05% reduced Triton X-100 at -80° C. Porcine pepsin was prepared as 1-2 mg/ml in 50 mM formic acid (pH 3.0). The peptide concentrations were adjusted for their protein content.
# HIV-1 protease activity was measured at 25° C. using substrate I (Lys-Ala-Arg-Val-Nle-Phe (NO2) -Glu-Ala-Nle-NH2 wherein Nle is norleucine and Phe (NO2) is 4-nitrophenylalamine). In a typical assay, 2.5 μl of enzyme was added to 97.5 μl of buffer and 2.5 mM DTT in the presence or absence of varying concentrations of inhibitor. The reaction was initiated by the addition of 10 μl of a 4 mM solution of substrate I in water and monitored by following the decrease in absorption at […] in a 100 μl spectrophotometric cell. Pepsin was assayed using substrate II (Phe-Gly-His-Phe(NO2)-Phe-Ala-PheOCH3). […] Concentrations of substrate solutions were determined spectrophotometrically at […].
# The enzyme was assayed in the presence of the inhibitor in 50 mM sodium formate at pH 4.25 and 2.5 mM DTT. […] Peptides 12a and 12b were assayed at pH 4.4 and contained 0.083% and 0.02% DMSO, respectively.
row,Compound,Ki [µM]
1,"N[C@@H](CC(=O)O)C(=O)N[C@@H](CC(=O)O)C(=O)O [Peptide 13, Asp--Asp] (H-Asp-Asp-OH)",970 ± 140
2,"FLREDLAF [Peptide 1, Phe--Leu--Arg--Glu--Asp--Leu--Ala--Phe]",98 ± 10
3,"N[C@@H](CC(=O)O)C(=O)O [Peptide 17, Aspartic acid, reference compound]",> 50000
4,"N[C@@H](CCC(=O)O)C(=O)O [Peptide 16, Glutamic acid, reference compound]",> 50000

# Same assay, conditions: 50 mM sodium formate pH 4.25, 2.5 mM DTT, substrate I 390 μM, 25° C.; peptides 1, 2, 4 from apparent Km vs [I], others from 1/V vs [I]; read-out: Ki
row,Compound,Ki [µM]
1,Glu--Lys--Phe (EKF) [Peptide 11],2010 ± 360

# Same assay, conditions: Ki, 50 mM sodium formate pH 4.25, 2.5 mM DTT, substrate I 390 μM, 25° C.; peptides 1, 2, 4 from apparent Km vs [I], others from 1/V vs [I]
row,Compound,Ki [µM]
1,"CC(C)C[C@H](NC(=O)[C@H](CC(=O)O)NC(=O)[C@@H](N)CC(=O)O)C(=O)O [Peptide 9, Asp--Asp--Leu] (H-Asp-Asp-Leu-OH)",140 ± 6
2,"CC(C)C[C@H](NC(=O)[C@H](CC(=O)O)NC(=O)[C@@H](N)CCC(=O)O)C(=O)N[C@@H](C)C(=O)O [Peptide 3, Glu--Asp--Leu--Ala] (H-EDLA-OH)",160 ± 20
3,"CC(C)C[C@H](NC(=O)[C@H](CCC(=O)O)NC(=O)[C@@H](N)CCC(=O)O)C(=O)O [Peptide 8, Glu--Glu--Leu] (H-Glu-Glu-Leu-OH)",310 ± 25
4,"NC(=O)CC[C@H](NC(=O)[C@@H](N)CC(=O)O)C(=O)O [Peptide 15, Asp--Gln] (H-Asp-Gln-OH)",> 1000
5,"FLRQNLAF [Peptide 18, Phe--Leu--Arg--Gln--Asn--Leu--Ala--Phe]",2000
6,"CC(C)C[C@H](NC(=O)[C@H](CCC(=O)O)NC(=O)[C@@H](N)CC(=O)O)C(=O)O [Peptide 7, Asp--Glu--Leu] (H-Asp-Glu-Leu-OH)",230 ± 20
7,"CC(C)C[C@H](NC(=O)[C@H](CC(N)=O)NC(=O)[C@@H](N)CCC(=O)O)C(=O)O [Peptide 10, Glu--Asn--Leu] (H-Glu-Asn-Leu-OH)",3070 ± 210
8,"GEDLAF [Peptide 2, Gly--Glu--Asp--Leu--Ala--Phe]",64 ± 13
9,"N[C@@H](CCC(=O)O)C(=O)N[C@@H](CC(=O)O)C(=O)N[C@@H](Cc1ccccc1)C(=O)O [Peptide 12, Glu--Asp--Phe] (H-Glu-Asp-Phe-OH)",25 ± 3
10,"N[C@@H](CC(=O)O)C(=O)N[C@@H](CCC(=O)O)C(=O)O [Peptide 14, Asp--Glu] (H-Asp-Glu-OH)",5400 ± 380
11,"CC(C)C[C@H](NC(=O)[C@@H](N)CC(=O)O)C(=O)N[C@@H](C)C(=O)N[C@@H](Cc1ccccc1)C(=O)O [Peptide 6, Asp--Leu--Ala--Phe] (H-DLAF-OH)",270 ± 25
12,"N=C(N)NCCC[C@H](N)C(=O)N[C@@H](CCC(=O)O)C(=O)N[C@@H](CC(=O)O)C(=O)O [Peptide 5, Arg--Glu--Asp] (H-Arg-Glu-Asp-OH)",3360 ± 400

# Same assay, conditions: Ki, NaCl 0 M; 50 mM sodium formate pH 4.25, 2.5 mM DTT; 1/V vs [I]
row,Compound,Ki [µM]
1,"N[C@@H](CCC(=O)O)C(=O)N[C@@H](CC(=O)O)C(=O)N[C@@H](Cc1ccccc1)C(=O)O [Peptide 12, Glu--Asp--Phe] (H-Glu-Asp-Phe-OH)",15 ± 2
2,"CC(C)C[C@H](NC(=O)[C@@H](N)CC(=O)O)C(=O)N[C@@H](C)C(=O)N[C@@H](Cc1ccccc1)C(=O)O [Peptide 6, Asp--Leu--Ala--Phe] (H-DLAF-OH)",270 ± 25

# Same assay, conditions: Ki, NaCl 1 M; 50 mM sodium formate pH 4.25, 2.5 mM DTT; 1/V vs [I]
row,Compound,Ki [µM]
1,"N[C@@H](CCC(=O)O)C(=O)N[C@@H](CC(=O)O)C(=O)N[C@@H](Cc1ccccc1)C(=O)O [Peptide 12, Glu--Asp--Phe] (H-Glu-Asp-Phe-OH)",410 ± 25
2,"CC(C)C[C@H](NC(=O)[C@@H](N)CC(=O)O)C(=O)N[C@@H](C)C(=O)N[C@@H](Cc1ccccc1)C(=O)O [Peptide 6, Asp--Leu--Ala--Phe] (H-DLAF-OH)",3260 ± 390

# Same assay, conditions: Ki, pH 4.4; 0.083% (12a) and 0.02% (12b) DMSO; 1/V vs [I]
row,Compound,Ki [µM]
1,"N[C@@H](CC(=O)O)C(=O)N[C@@H](CC(=O)O)C(=O)N[C@@H](Cc1ccccc1)C(=O)O [Peptide 12a, Asp--Asp--Phe] (H-Asp-Asp-Phe-OH)",43 ± 7
2,"N[C@@H](Cc1ccccc1)C(=O)N[C@@H](CC(=O)O)C(=O)N[C@@H](CC(=O)O)C(=O)N[C@@H](Cc1ccccc1)C(=O)O [Peptide 12b, Phe--Asp--Asp--Phe] (H-FDDF-OH)",55 ± 14

# Molecular target: T1, HIV-1 protease
# Test: HIV-1 protease hydrolysis of synthetic cleavage-site peptide substrates (RP-HPLC, Lineweaver-Burk)
# Assay type: biochemical
# Conditions: Gag cleavage sites
# Experimental: […] Reactions were terminated with 190 μl of a solution of 8M guanidine hydrochloride and 1% trifluroacetic acid (TFA) and subjected to reverse-phase high performance liquid chromotography ("RP-HPLC") on a C18 column. The substrate and cleavage products were separated with a linear gradient of 0 to 50% acetonitrile in water containing 0.05% TFA. The identity of the cleavage products was confirmed by electrospray mass spectroscopy. Peak areas were integrated using the Turbochrom 4 software (Perkin Elmer, San Jose, Calif.). Lineweaver-Burk analysis was used to determine kcat and Km.
row,Compound,kcat /Km [M⁻¹ s⁻¹]
1,PGNF*LQSR,600
2,ARVL*AEAM,90000
3,ATIM*MQRG,74000
4,SQNY*PIVQ,45000
5,RQAN*FLGK,1600

# Same assay, conditions: Pol cleavage sites
row,Compound,kcat /Km [M⁻¹ s⁻¹]
1,TLNF*PISP,24000
2,"ERQANFLRED [ERQAN*FLRED, Glu-Arg-Gln-Ala-Asn-Phe-Leu-Arg-Glu-Asp]",0.019
3,AETF*YVDG,10000
4,SFNF*PQIT,7000
5,RKIL*FLDG,200000
6,"DLAFLQGK [DLAF*LQGK, Asp-Leu-Ala-Phe-Leu-Gln-Gly-Lys]",1200

# Molecular target: T1, HIV-1 protease
# Test: biochemical
# Conditions: 1M NaCl, 50 mM sodium formate, pH 4.0, 2.5 mM DTT, 25° C.
row,Compound,Ki [µM]
1,"N[C@@H](CCC(=O)O)C(=O)N[C@@H](CC(=O)O)C(=O)N[C@@H](Cc1ccccc1)C(=O)O [Peptide 12, Glu--Asp--Phe] (H-Glu-Asp-Phe-OH)",410 ± 25
2,"CC(C)C[C@H](NC(=O)[C@@H](N)CC(=O)O)C(=O)N[C@@H](C)C(=O)N[C@@H](Cc1ccccc1)C(=O)O [Peptide 6, Asp--Leu--Ala--Phe] (H-DLAF-OH)",3260 ± 390

# Test system: mature HIV-1 protease
# Test: 50 mM sodium acetate, pH 5.0 or 100 mM sodium phosphate at pH 5.5 containing 1 mM DTT, 1 mM EDTA, 1M NaCl
# Conditions: 37° C.
row,Compound,cleaved bond
1,DLAFLQGK,Phe-Leu
2,ERQANFLRED,Asn-Phe
